In US9718822B2, “Macrocyclic compounds as Trk kinase inhibitors” (Array BioPharma, Inc., priority 2010, dated 2017):
Where two headings read alike, the source gives them in different places.

Tests used:
[1] = target: histidine-tagged recombinant human TrkA, cytoplasmic domain (Homo sapiens (Human), UniProt P04629); assay: TrkA ELISA Assay; assay type: biochemical; conditions: read-out: TrkA Elisa Enzyme Assay IC50; also: 2.5 nM TrkA
Description: An enzyme-linked immunosorbant assay (ELISA) was used to assess TrkA kinase activity in the presence of inhibitors. Immulon 4HBX 384-well microtiter plates (Thermo part #8755) were coated with a 0.025 mg/mL solution of poly (Glu, Ala, Tyr; 6:3:1; Sigma P3899). […] The assay buffer consisted of 25 mM MOPS pH 7.5, 0.005% (v/v) Triton X-100 and 5 mM MgCl2. The reaction mixture was removed from the plate by washing with PBS containing 0.1% (v/v) Tween 20. The phosphorylated reaction product was detected using 0.2 μg/mL of a phosphotyrosine specific monoclonal antibody (clone PY20) conjugated to horseradish peroxidase in conjunction with the TMB Peroxidase Substrate System (KPL). After the addition of 1M phosphoric acid, the chromogenic substrate color intensity was quantitated via absorbance at 450 nm. IC50 values were calculated using either a 4 or 5-parameter logistic curve fit.
Table 1 provides averaged IC50 values for compounds of the invention when tested in this assay.

[2] = target: His-tagged recombinant human TrkA (cytoplasmic domain) (Homo sapiens (Human), UniProt P04629); assay: TrkA Binding Assay (LanthaScreen Eu Kinase Binding Assay)
Description: The ability of a compound to bind to TrkA was measured by Invitrogen's LanthaScreen™ Eu Kinase Binding Assay. […] After a 60-minute incubation at 22° C., the reaction was measured using the EnVision via TR-FRET dual wavelength detection, and the POC was calculated from the emission ratio. The compound dose response data was fit to a 4-parameter logistic model and IC50 was defined as the concentration of compound at 50 POC.

[3] = averaged IC50 values, […] TrkA, 500 μM ATP, 25 minutes at ambient temperature
[4] = averaged IC50 values, TR-FRET, 60-minute incubation at 22° C., 2% DMSO final

Sequence of His-tagged recombinant human TrkA (cytoplasmic domain) (P04629 440-796): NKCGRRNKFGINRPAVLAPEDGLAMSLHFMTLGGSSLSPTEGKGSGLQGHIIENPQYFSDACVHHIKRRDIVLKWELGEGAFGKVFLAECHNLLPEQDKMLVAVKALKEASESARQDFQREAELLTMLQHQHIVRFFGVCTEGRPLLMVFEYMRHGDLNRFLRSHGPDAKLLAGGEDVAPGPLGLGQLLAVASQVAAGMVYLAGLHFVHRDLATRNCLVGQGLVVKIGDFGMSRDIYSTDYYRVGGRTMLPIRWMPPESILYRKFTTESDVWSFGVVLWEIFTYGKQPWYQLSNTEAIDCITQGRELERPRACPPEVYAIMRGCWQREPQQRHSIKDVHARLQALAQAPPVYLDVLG
Sequence of histidine-tagged recombinant human TrkA, cytoplasmic domain (P04629 440-796): as above

Compound: O=C1NC[C@H](O)COc2ccc(F)cc2C2CC(F)(F)CN2c2ccn3ncc1c3n2 (some centres unmarked)
- ring closure, yield of all isomers (from O=C(NC[C@H](O)CCl)c1cnn2ccc(N3CC(F)(F)CC3c3cc(F)ccc3O)nc12, ether bond, Cs2CO3, DMF, 20.0 mM, 85.0 °C, 0.5 h): 44%

Compound: O=C1NCCCOc2ncc(F)cc2[C@H]2CCCN2c2ccn3ncc1c3n2 [Example 3, (6R)-9-fluoro-13-oxa-2,11,17,21,22,25-hexaazapentacyclo[17.5.2.0^2,6.0^7,12.0^22,26]hexacosa-1(25),7,9,11,19(26),20,23-heptaen-18-one]
- ring closure, yield of all isomers (from O=C(NCCCCl)c1cnn2ccc(N3CCC[C@@H]3c3cc(F)cnc3O)nc12, ether bond, Cs2CO3, DMF, […], 85.0 °C, 16.0 h): 44%
- IC50 [1]: 1 to 100 nM
- IC50 [2]: 1 to 100 nM

Compound: O=C1NCC(O)COc2ncc(F)cc2[C@H]2CCCN2c2ccn3ncc1c3n2 (stereo partly drawn) [Example 6, (6R)-9-fluoro-15-hydroxy-13-oxa-2,11,17,21,22,25-hexaazapentacyclo-[17.5.2.0^2,6.0^7,12.0^22,26]hexacosa-1(25),7,9,11,19(26),20,23-heptaen-18-one]
- IC50 [1, 3]: 1 to 100 nM
- IC50 [2, 4]: 1 to 100 nM

Compound: O=C1NC[C@@H](O)COc2ncc(F)cc2[C@H]2CCCN2c2ccn3ncc1c3n2 [Example 7, (6R,15R)-9-fluoro-15-hydroxy-13-oxa-2,11,17,21,22,25-hexaazapentacyclo-[17.5.2.0^2,6.0^7,12.0^22,26]hexacosa-1(25),7,9,11,19(26),20,23-heptaen-18-one]
- ring closure, yield of all isomers (from O=C(NC[C@@H](O)CCl)c1cnn2ccc(N3CCC[C@@H]3c3cc(F)c[nH]c3=O)nc12, ether bond, Cs2CO3, DMF, 98.6 mM, 85.0 °C, 1.0 h): 40%
- IC50 [1]: 1 to 100 nM
- IC50 [2]: 1 to 100 nM

Compound: O=C1NC[C@@H](O)Cn2cc(F)cc(c2=O)[C@H]2CCCN2c2ccn3ncc1c3n2 [Example 8]
- IC50 [1]: 1 to 100 nM
- IC50 [2]: 1 to 100 nM

Compound: O=C1NCCOc2ncc(F)cc2[C@H]2CCCN2c2ccn3ncc1c3n2 [Example 9, (6R)-9-fluoro-13-oxa-2,11,16,20,21,24-hexaazapentacyclo[16.5.2.0^2,6.0^7,12.0^21,25]pentacosa-1(24),7,9,11,18(25),19,22-heptaen-17-one]
- ring closure, yield of all isomers (from O=C(NCCCl)c1cnn2ccc(N3CCC[C@@H]3c3cc(F)c[nH]c3=O)nc12, ether bond, Cs2CO3, DMF, […], 85.0 °C, 0.5 h): 24%
- IC50 [1, 3]: 1 to 100 nM
- IC50 [2, 4]: 1 to 100 nM

Compound: O=C1NCCCCOc2ncc(F)cc2[C@H]2CCCN2c2ccn3ncc1c3n2 [Example 10, (6R)-9-fluoro-13-oxa-2,11,18,22,23,26-hexaazapentacyclo[18.5.2.0^2,6.0^7,12.0^23,27]heptacosa-1(26),7,9,11,20(27),21,24-heptaen-19-one]
- IC50 [1]: 1 to 100 nM
- IC50 [2]: 1 to 100 nM

Compound: O=C1NCCCCn2cc(F)cc(c2=O)[C@H]2CCCN2c2ccn3ncc1c3n2 [Example 11, (6R)-9-fluoro-2,11,16,20,21,24-hexaazapentacyclo[16.5.2.1^7,11.0^2,6.0^21,25]hexacosa-1(24),7,9,18(25),19,22-hexaene-17,26-dione]
- IC50 [1]: 1 to 100 nM
- IC50 [2]: 1 to 100 nM

Compound: O=C1OCCOc2ncc(F)cc2[C@H]2CCCN2c2ccn3ncc1c3n2 [Example 14, (6R)-9-fluoro-13,16-dioxa-2,11,20,21,24-pentaazapentacyclo[16.5.2.0^2,6.0^7,12.0^21,25]pentacosa-1(24),7,9,11,18(25),19,22-heptaen-17-one]
- ring closure, yield of all isomers (from O=C(OCCCl)c1cnn2ccc(N3CCC[C@@H]3c3cc(F)c[nH]c3=O)nc12, ether bond, Cs2CO3, DMF, 22.2 mM, 90.0 °C, 16.0 h): 31%
- IC50 [1]: 1 to 100 nM

Compound: O=C1NOCCOc2ncc(F)cc2[C@H]2CCCN2c2ccn3ncc1c3n2 [Example 16, (6R)-9-fluoro-13,16-dioxa-2,11,17,21,22,25-hexaazapentacyclo [17.5.2.0^2,6.0^7,12.0^22,26]hexacosa-1(25),7,9,11,19(26),20,23-heptaen-18-one]
- ring closure, yield of all isomers (from O=C(NOCCCl)c1cnn2ccc(N3CCC[C@@H]3c3cc(F)c[nH]c3=O)nc12, ether bond, Cs2CO3, DMF, 100.0 mM, 90.0 °C, […]): 1%
- IC50 [1]: 1 to 100 nM
- IC50 [2]: 1 to 100 nM

Compound: CN1CCCOc2ncc(F)cc2[C@H]2CCCN2c2ccn3ncc(c3n2)C1=O [Example 18, (6R)-9-fluoro-17-methyl-13-oxa-2,11,17,21,22,25-hexaazapentacyclo[17.5.2.0^2,6.0^7,12.0^22,26]hexacosa-1(25),7,9,11,19(26),20,23-heptaen-18-one]
- ring closure, yield of all isomers (from CN(CCCCl)C(=O)c1cnn2ccc(N3CCC[C@@H]3c3cc(F)c[nH]c3=O)nc12, ether bond, Cs2CO3, DMF, 10.0 mM, 90.0 °C, 0.25 h): 36%
- IC50 [1]: 1 to 100 nM
- IC50 [2]: 1 to 100 nM

Compound: O=C1NCC(F)(F)COc2ncc(F)cc2[C@H]2CCCN2c2ccn3ncc1c3n2 [Example 19, (6R)-9,15,15-trifluoro-13-oxa-2,11,17,21,22,25-hexaazapentacyclo[17.5.2.0^2,6.0^7,12.0^22,26]hexacosa-1(25),7,9,11,19(26),20,23-heptaen-18-one]
- IC50 [1]: 1 to 100 nM
- IC50 [2]: 1 to 100 nM

Compound: O=C1NCCCOc2ccc(F)cc2[C@H]2CCCN2c2ccn3ncc1c3n2 [Example 20, (6R)-9-fluoro-13-oxa-2,17,21,22,25-pentaazapentacyclo[17.5.2.0^2,6.0^7,12.0^22,26]hexacosa-1(25),7,9,11,19(26),20,23-heptaen-18-one]
- ring closure, yield of all isomers (from CCOC(=O)c1cnn2ccc(N3CCC[C@@H]3c3cc(F)ccc3OCCCN)nc12, amide bond, DIEA, EtOH, 230.0 mM, 200.0 °C): 50%
- IC50 [1]: 1 to 100 nM
- IC50 [2]: 1 to 100 nM

Compound: O=C(CO)N1CCOc2ccc(F)cc2[C@H]2CCCN2c2ccn3ncc(c3n2)C1 [Example 23, 1-[(6R)-9-fluoro-13-oxa-2,16,20,21,24-pentaazapentacyclo[16.5.2.0^2,6.0^7,12.0^21,25]pentacosa-1(24),7,9,11,18(25),19,22-heptaen-16-yl]-2-hydroxyethan-1-one]
- IC50 [1]: 1 to 100 nM
- IC50 [2]: 1 to 100 nM

Compound: O=C(O)CN1CCOc2ccc(F)cc2[C@H]2CCCN2c2ccn3ncc(c3n2)C1 [Example 26, 2-[(6R)-9-fluoro-13-oxa-2,16,20,21,24-pentaazapentacyclo[16.5.2.0^2,6.0^7,12.0^21,25]pentacosa-1(24),7,9,11,18(25),19,22-heptaen-16-yl]acetic acid]
- IC50 [1]: 100 to 3000 nM
- IC50 [2]: 100 to 3000 nM

Compound: O=C1NCCCOc2ncc(F)cc2[C@H]2COC(=O)N2c2ccn3ncc1c3n2 [Example 30, (6S)-9-fluoro-4,13-dioxa-2,11,17,21,22,25-hexaazapentacyclo [17.5.2.0^2,6.0^7,12.0^22,26]hexacosa-1(25),7(12),8,10,19(26),20,23-heptaene-3,18-dione]
- ring closure, yield of all isomers (from O=C(NCCCCl)c1cnn2ccc(N3C(=O)OC[C@@H]3c3cc(F)c[nH]c3=O)nc12, ether bond, Cs2CO3, DMF, 26.7 mM, 65.0 °C, 48.5 h): 41%
- IC50 [1]: 1 to 100 nM

Compound: O=C1NCCOc2ncc(F)cc2[C@H]2COC(=O)N2c2ccn3ncc1c3n2 [Example 31, (6S)-9-fluoro-4,13-dioxa-2,11,16,20,21,24-hexaazapentacyclo [16.5.2.0^2,6.0^7,12.0^21,25]pentacosa-1(24),7(12),8,10,18(25),19,22-heptaene-3,17-dione]
- IC50 [1]: 100 to 3000 nM
- IC50 [2]: 100 to 3000 nM

Compound: O=C1NCCCc2ncc(F)cc2[C@H]2CCCN2c2ccn3ncc1c3n2 [Example 32, (6R)-9-fluoro-2,11,16,20,21,24-hexaazapentacyclo[16.5.2.0^2,6.0^7,12.0^21,25]pentacosa-1(24),7,9,11,18(25),19,22-heptaen-17-one]
- ring closure, yield of all isomers (from NCCCc1ncc(F)cc1[C@H]1CCCN1c1ccn2ncc(C(=O)O)c2n1, amide bond, HATU, DMF, 8.4 mM, 3.0 h): 39%
- IC50 [2]: 1 to 100 nM

Compound: CC1(C)CCc2ncc(F)cc2[C@H]2CCCN2c2ccn3ncc(c3n2)C(=O)N1 [Example 37]
- ring closure, yield of all isomers (from COC(=O)c1cnn2ccc(N3CCC[C@@H]3c3cc(F)cnc3CCC(C)(C)NC(=O)OC(C)(C)C)nc12, amide bond, EDCI/HOBt/Et3N, DMF, 39.4 mM, 45.0 °C, 18.0 h, 3 steps): 48.3%
- IC50 [2]: 1 to 100 nM

Compound: O=C1Nc2ncccc2COc2ncc(F)cc2[C@H]2CCCN2c2ccn3ncc1c3n2 [Example 39, (6R)-9-fluoro-13-oxa-2,11,19,21,25,26,29-heptaazahexacyclo [21.5.2.0^2,6.0^7,12.0^15,20.0^26,30]triaconta-1(29),7,9,11,15(20),16,18,23(30),24,27-decaen-22-one]
- ring closure, yield of all isomers (from O=C(Nc1ncccc1CCl)c1cnn2ccc(N3CCC[C@@H]3c3cc(F)cnc3O)nc12, ether bond, Cs2CO3, DMF, 84.8 mM, 60.0 °C, 4.0 h, 4 steps): 2.2%
- IC50 [2]: 1 to 100 nM

Compound: O=C1NC[C@H](O)COc2ccc(F)cc2[C@H]2C[C@@H](O)CN2c2ccn3ncc1c3n2 [Example 41, (4R,6R,15S)-9-fluoro-4,15-dihydroxy-13-oxa-2,17,21,22,25-pentaazapentacyclo [17.5.2.0^2,6.0^7,12.0^22,26]hexacosa-1(25),7(12),8,10,19(26),20,23-heptaen-18-one]
- ring closure, yield of all isomers (from O=C(NC[C@H](O)CCl)c1cnn2ccc(N3C[C@H](O)CC3c3cc(F)ccc3O)nc12, ether bond, Cs2CO3, DMF, 21.6 mM, 85.0 °C, 0.5 h): 16.2%
- IC50 [2]: 1 to 100 nM
